Assay results from patent publication US20100144729A1, “COUMARIN DERIVATIVES” (priority 2007, published 2010).

Key:
S1P-5 = biological target: T1, S1P-5 (Homo sapiens, UniProt Q9H228); assay: FLIPR calcium flux assay, S1P-5; assay type: cell-based; details: CHO cells expressing S1P receptor
T1 construct: expressed in transfected cells; host or cells: CHO cells under G418 selection
Protocol: (§1) Compounds of the invention are tested for agonist activity on S1P1, S1P3, S1P5, and […] with a FLIPR calcium flux assay. Briefly, CHO cells expressing an S1P receptor are maintained in F-12K medium (ATCC), containing 5% FBS, with 500 ug/ml of G418. Prior to the assay, the cells are plated in 384 black clear bottom plates at the density of 10,000 cells/well/25 ? l in the medium of F-12K containing 1% FBS. The second day, the cells are washed three times (25 μl/each) with washing buffer. About 25 μl of dye are added to each well and incubated for 1 hour at 37° C. and 5% CO2. The cells are then washed four times with washing buffer (25 μl/each). The calcium flux is assayed after adding 25 μl of SEW2871 (published by Rosen et al., used as reference) solution to each well of cells. The same assay is performed with cells expressing each of the different S1P receptors. Titration in the FLIPR calcium flux assay is recorded over a 3-minute interval, and quantitated as maximal peak height percentage response relative to S1P-1 activation. The compounds of the invention are active in this assay at a concentration of from 10^−12 and 3.10^−[…]. For example example 13 as an EC50 92 nm for S1P-1 and an EC50>1 um for all the other isoforms (S1P-2, S1P-3, S1P-4, S1P-5).

S1P-2 = biological target: T2, S1P-2 (Homo sapiens, UniProt O95136); assay: FLIPR calcium flux assay, S1P-2; assay type: cell-based; details: CHO cells expressing S1P receptor
T2 construct: expressed in transfected cells; host or cells: CHO cells under G418 selection
T2 sequence (O95136 whole entry): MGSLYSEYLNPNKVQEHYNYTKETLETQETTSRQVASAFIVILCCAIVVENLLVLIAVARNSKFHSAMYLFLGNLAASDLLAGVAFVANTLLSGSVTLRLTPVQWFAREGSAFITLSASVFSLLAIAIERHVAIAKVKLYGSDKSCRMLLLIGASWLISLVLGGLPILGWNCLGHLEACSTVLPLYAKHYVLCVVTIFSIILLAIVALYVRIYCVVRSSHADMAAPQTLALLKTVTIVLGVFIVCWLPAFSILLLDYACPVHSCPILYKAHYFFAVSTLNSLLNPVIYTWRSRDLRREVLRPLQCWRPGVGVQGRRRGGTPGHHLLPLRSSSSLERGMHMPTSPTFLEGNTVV
Protocol: as §1

S1P-1 = biological target: T3, S1P-1 (Homo sapiens, UniProt P21453); assay: FLIPR calcium flux assay, S1P-1; assay type: cell-based; details: CHO cells expressing S1P receptor
T3 construct: expressed in transfected cells; host or cells: CHO cells under G418 selection
T3 sequence (P21453 whole entry): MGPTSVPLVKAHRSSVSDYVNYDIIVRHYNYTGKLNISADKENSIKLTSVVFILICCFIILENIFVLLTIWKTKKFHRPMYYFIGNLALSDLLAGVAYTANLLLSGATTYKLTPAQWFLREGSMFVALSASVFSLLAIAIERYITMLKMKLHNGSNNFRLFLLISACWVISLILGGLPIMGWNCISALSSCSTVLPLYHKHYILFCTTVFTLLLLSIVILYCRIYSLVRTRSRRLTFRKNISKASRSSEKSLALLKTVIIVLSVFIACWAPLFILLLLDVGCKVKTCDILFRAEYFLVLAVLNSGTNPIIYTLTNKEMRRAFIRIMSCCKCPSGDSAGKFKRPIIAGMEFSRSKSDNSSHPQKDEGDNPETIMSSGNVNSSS
Protocol: as §1

S1P-3 = biological target: T4, S1P-3 (Homo sapiens, UniProt Q99500); assay: FLIPR calcium flux assay, S1P-3; assay type: cell-based; details: CHO cells expressing S1P receptor
T4 construct: expressed in transfected cells; host or cells: CHO cells under G418 selection
T4 sequence (Q99500 whole entry): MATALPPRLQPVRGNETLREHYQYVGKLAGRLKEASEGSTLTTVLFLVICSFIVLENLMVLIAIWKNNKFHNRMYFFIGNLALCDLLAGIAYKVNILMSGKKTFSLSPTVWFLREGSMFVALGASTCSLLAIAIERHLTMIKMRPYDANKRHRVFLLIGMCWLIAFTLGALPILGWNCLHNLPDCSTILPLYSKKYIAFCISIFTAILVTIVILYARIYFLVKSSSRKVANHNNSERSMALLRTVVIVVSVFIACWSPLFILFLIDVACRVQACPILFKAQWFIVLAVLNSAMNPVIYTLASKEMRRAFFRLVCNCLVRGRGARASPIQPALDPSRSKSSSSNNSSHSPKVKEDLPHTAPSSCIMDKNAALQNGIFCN
Protocol: as §1

S1P-4 = biological target: T5, S1P-4 (Homo sapiens, UniProt O95977); assay: FLIPR calcium flux assay, S1P-4; assay type: cell-based; details: CHO cells expressing S1P receptor
T5 construct: expressed in transfected cells; host or cells: CHO cells under G418 selection
T5 sequence (O95977 1-384): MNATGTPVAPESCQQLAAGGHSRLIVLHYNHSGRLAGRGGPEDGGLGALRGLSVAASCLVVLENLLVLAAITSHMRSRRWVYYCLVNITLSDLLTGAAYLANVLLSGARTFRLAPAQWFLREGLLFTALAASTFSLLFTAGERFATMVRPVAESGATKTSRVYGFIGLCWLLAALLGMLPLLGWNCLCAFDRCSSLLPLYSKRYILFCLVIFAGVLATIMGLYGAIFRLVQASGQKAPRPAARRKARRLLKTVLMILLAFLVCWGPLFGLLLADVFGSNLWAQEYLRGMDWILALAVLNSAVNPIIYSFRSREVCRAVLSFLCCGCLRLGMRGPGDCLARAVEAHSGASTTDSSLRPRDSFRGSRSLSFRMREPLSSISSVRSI
Protocol: as §1

S1P1 (EDG-1) = biological target: T6, S1P1 (EDG-1) (Homo sapiens, UniProt P21453); assay: GPCR activation assay measuring GTP [γ-35S] binding to membranes from CHO cells expressing human EDG receptors (S1P1); assay type: biochemical; details: CHO cell membranes expressing human EDG-1, read-out: S1P-1 EC50
T6 construct: c-myc (N); expressed in transfected cells; homogenized membranes
T6 sequence (P21453 whole entry): as the sequence (P21453 whole entry) above
Protocol: A.1 In Vitro: GPCR Activation Assay Measuring GTP [γ-^35S] Binding to Membranes Prepared From CHO Cells Expressing Human EDG Receptors
S1P1 (EDG-1) GTP [γ-^35S] binding assay: Homogenized membranes are prepared from CHO cell clones stably expressing a human EDG-1 N-terminal c-myc tag. Cells are grown in suspension in two 850 cm^2 roller bottles for three or fours days before harvesting. The cells are centrifuged down, washed once with cold PBS, and resuspended in ≦20 ml of Buffer A (20 mM HEPES, pH 7.4, 10 mM EDTA, EDTA-free complete protease inhibitor cocktail [1 tablet/25 ml]). The cell suspension is homogenized on ice, using a Polytron homogenizer at 30000 rpm at three intervals of 15 seconds each. The homogenate is first centrifuged at 2000 rpm on a tabletop low speed centrifuge for 10 minutes. The supernatant, after passing through a cell strainer, is then re-centrifuged at 50,000×g for 25 minutes at 4° C. The pellet is resuspended into buffer B (15% glycerol, 20 mM HEPES, pH 7.4, 0.1 mM EDTA, EDTA-free complete protease inhibitor cocktail [1 tablet/10 ml]). Protein concentration of the preparation is determined using the BCA Protein Assay kit (Pierce) using BSA as standard. The membranes are aliquoted and kept frozen at −80° C.
Solutions of test compounds ranging from 10 mM to 0.01 nM are prepared in DMSO. S1P is diluted in 4% BSA solution as positive controls. The desired amount of membrane preparation is diluted with ice-cold assay buffer (20 mM HEPES, pH 7.4, 100 mM NaCl, 10 mM MgCl2, 0.1% Fatty acid-free BSA, 5 μM GDP) and vortexed well. 2 μl or less of compound is distributed into each well of a round-bottom 96-well polystyrene assay plate, followed by addition of 100 μl of diluted membranes (3-10 μg/well) and kept on ice until the addition of hot GTPγS. [^35S]-GTPγS is diluted 1:1000 (v/v) with cold assay buffer and 100 μl is added into each well. The reaction is carried out at room temperature for 90 minutes before the membranes are harvested onto Perkin-Elmer Unifilter® GF/B-96 filter plate using a Packard Filtermate Harvester. After several washes with wash buffer (20 mM HEPES, pH 7.4, 100 mM NaCl, 10 mM MgCl2), and a rinse with 95% ethanol, the filter is dried in a 37° C. oven for 30 minutes. MicroScint-20 is added and the plate sealed for scintillation counting on TopCount. EC50 values are obtained by fitting the GTP [γ-^35S] binding curves (raw data) with the dose response curve-fitting tool of GraphPad Prism. Six or twelve different concentrations are used to generate a concentration response curve (using three data points per concentration).

T1 sequence (Q9H228 whole entry): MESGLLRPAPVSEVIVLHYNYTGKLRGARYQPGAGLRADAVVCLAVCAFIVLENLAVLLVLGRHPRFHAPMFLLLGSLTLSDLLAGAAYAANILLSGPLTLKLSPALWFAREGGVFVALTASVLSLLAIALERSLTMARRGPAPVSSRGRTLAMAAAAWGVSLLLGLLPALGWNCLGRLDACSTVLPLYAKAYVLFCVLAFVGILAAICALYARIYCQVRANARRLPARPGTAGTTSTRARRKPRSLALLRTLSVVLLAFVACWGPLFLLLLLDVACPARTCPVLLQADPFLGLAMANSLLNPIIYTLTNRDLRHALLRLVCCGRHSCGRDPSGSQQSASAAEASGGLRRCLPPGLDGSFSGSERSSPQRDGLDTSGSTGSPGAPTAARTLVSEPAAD

| Structure (SMILES) | EC50 (S1P1 (EDG-1)) | other results |
| --- | --- | --- |
| CCCc1c(OC)ccc2cc(C(=O)Nc3ccc(C4CCCN4C)cc3)c(=O)oc12 (racemic) [Example 13] | – | EC50 (S1P-5): > 1000 nM; EC50 (S1P-2): > 1000 nM; EC50 (S1P-1): 92 nM; EC50 (S1P-3): > 1000 nM; EC50 (S1P-4): > 1000 nM |
| CCCc1c(OC)ccc2cc(C(=O)Nc3ccc(C4CNCCN4)cc3)c(=O)oc12 (racemic) [Example 43] | 0.1 nM | – |
| COc1ccc2cc(C(=O)Nc3ccc(C4CCCCN4)cc3)c(=O)oc2c1OC(C)C (single isomer, unassigned) [Example 23] | 75.5 nM | – |
| COc1ccc2cc(C(=O)Nc3ccc(C4CNCCO4)cc3)c(=O)oc2c1OC(C)C (single isomer, unassigned) [Example 41] | 2.9 nM | – |
| CCc1c(OC)ccc2cc(C(=O)Nc3ccc(C4CNCCN4)cc3)c(=O)oc12 (single isomer, unassigned) [Example 44] | 0.2 nM | – |
| CCOc1c(OC)ccc2cc(C(=O)Nc3ccc(C4CNCCN4)cc3)c(=O)oc12 (single isomer, unassigned) [Example 53] | 4.6 nM | – |
| CCCc1c(OC)ccc2cc(C(=O)Nc3ccc(C4CCCN4)cc3)c(=O)oc12 (stereo not shown) [Example 1, 7-Methoxy-2-oxo-8-propyl-2H-chromene-3-carboxylic acid (4-pyrrolidin-2-yl-phenyl)-amide] | 0.1 nM | – |
| CCOc1c(OC)ccc2cc(C(=O)Nc3ccc([C@H]4CCCN4)cc3)c(=O)oc12 [Example 8] | 7.5 nM | – |
| CCCc1c(OC)ccc2cc(C(=O)Nc3ccc([C@H]4COCCN4)cc3)c(=O)oc12 [Example 27] | 0.2 nM | – |
| CCc1c(OC)ccc2cc(C(=O)Nc3ccc([C@H]4CCCN4)cc3C)c(=O)oc12 [Example 62] | 0.5 nM | – |
| COc1ccc2cc(C(=O)Nc3ccc([C@H]4CCCN4)c(F)c3)c(=O)oc2c1C [Example 72] | 1.8 nM | – |
| Cc1cc([C@H]2CCCN2)ccc1NC(=O)c1cc2ccc(OC(C)C)c(OC(C)C)c2oc1=O [Example 82] | 2.4 nM | – |
| CCOc1ccc2cc(C(=O)Nc3ccc([C@H]4CCCN4)cc3F)c(=O)oc2c1OCC [Example 89] | 12.8 nM | – |
| COc1ccc2cc(C(=O)Nc3ccc([C@H]4COCCN4)c(C)c3)c(=O)oc2c1OC(C)C [Example 90] | 6.2 nM | – |
| COc1ccc2cc(C(=O)Nc3cccc([C@H]4COCCN4)c3)c(=O)oc2c1OC(C)C [Example 96] | 2.8 nM | – |
